Publication PMC8708503, “Scalarane Sesterterpenoids with Antibacterial and Anti-Proliferative Activities from the Mushroom Neonothopanus nambi” (Molecules, 2021)
In brackets after ≈: the same amount, converted by molar mass.

How the values were obtained:
Assay type in all cases: cell-based
[1] = system: Staphylococcus aureus ATCC 25923; assay: Antibacterial assay (CLSI), S. aureus; set-up: key to MIC, Staphylococcus aureus ATCC 25923: inactive: Inactive at >128 μg/mL; conditions: Inactive at >128 μg/mL; for MIC: Staphylococcus aureus, ATCC25923
Experimental: (§1) Five microorganism cultures (Methicillin resistant S. aureus DMST 20654, S. aureus ATCC 25923, S. sonnei ATCC 11060, B. subtilis ATCC 6633, and B. cereus ATCC 11778) were used. The experiments were performed at the Department of Microbiology, Faculty of Science, Khon Kaen University, Thailand. The antibacterial assay was performed as recommended by the Clinical and Laboratory Standards Institute. The standard drugs kanamycin and chloramphenicol were used as positive controls.

[2] = system: Bacillus cereus ATCC 11778; assay: Antibacterial assay (CLSI), B. cereus; set-up: key to MIC, Bacillus cereus ATCC 11778: inactive: Inactive at >128 μg/mL; conditions: Inactive at >128 μg/mL; for MIC: Bacillus cereus, ATCC11778
Experimental: as §1

[3] = system: Bacillus subtilis ATCC 6633; assay: Antibacterial assay (CLSI), B. subtilis; set-up: key to MIC, Bacillus subtilis ATCC 6633: inactive: Inactive at >128 μg/mL; conditions: Inactive at >128 μg/mL; for MIC: Bacillus subtilis, ATCC6633
Experimental: as §1

[4] = system: Methicillin Resistant Staphylococcus aureus DMST 20654; assay: Antibacterial assay (CLSI), MRSA; set-up: key to MIC, Methicillin Resistant Staphylococcus aureus DMST 20654: inactive: Inactive at >128 μg/mL; conditions: Inactive at >128 μg/mL; for MIC: Staphylococcus aureus
Experimental: as §1

[5] = system: A549 human lung carcinoma cell line; assay: MTT anti-proliferative assay, A549; conditions: Mean ± S.D. (n = 3)
Experimental: (§2) The anti-proliferative effect on cancer cells was evaluated by MTT (3-(4,5-dimethylthiazol-2-yl)-2,5-diphenyltetrazolium bromide) assay. Cells (8 × 10^3 cell/well) were seeded onto 96-well plates and incubated for 24 h to allow adherence. After 24 h, the cells were exposed to increasing concentrations (3.12, 6.25, 12.5, 25, 50, and 100 μg/mL) of pure metabolites in a mixture of DMSO and ethanol (1:1) for 72 h. Control groups were treated with a mixture of DMSO and ethanol (1:1). After the indicated time, the medium was replaced with 110 μL of fresh medium containing MTT (0.5 mg/mL in PBS) (Sigma Chemical Co., St Louis, MO, USA) and incubated for 2 h. The formazan formed after conversion of MTT was dissolved in DMSO. The absorbance of formazan was measured with a microplate reader (Bio-Rad Laboratories, Hercules, CA, USA) at the wavelength of 550 nm with a reference wavelength of 655 nm. The percentage of viable cells which corresponds to the production of formazan was calculated using the following formula [19]. %cell viability = [Sample (A550 - […])/Control (A550 - […])] × 100(1)

HT29 human colon cancer = assay: MTT anti-proliferative assay, HT29; conditions: Mean ± S.D. (n = 3)
Experimental: as §2

[6] = system: HeLa human cervical cancer; assay: MTT anti-proliferative assay, HeLa; conditions: 72 h, Mean ± S.D. (n = 3)
Experimental: as §2

[7] = system: HCT-116 human colon cancer; assay: MTT anti-proliferative assay, HCT-116; conditions: Mean ± S.D. (n = 3)
Experimental: as §2

Vero cells = assay: MTT cytotoxicity assay, Vero cells; conditions: 72 h, Mean ± S.D. (n = 3)
Experimental: as §2

For `O=C(N[C@H](CO)[C@H](O)c1ccc([N+](=O)[O-])cc1)C(Cl)Cl` [Chloramphenicol, reference compound], the MIC [1] was 8 µg/mL (≈ 24.8 µM), the MIC [2] was 4 µg/mL (≈ 12.4 µM) and the MIC [3] was 4 µg/mL (≈ 12.4 µM). For the same molecule, the MIC [4] was 8 µg/mL (≈ 24.8 µM).

`CC(=O)OC1CC2(C)C3CCc4cocc4C3(C)CC(OC(=O)CC(=O)O)C2C2(C)CCCC(C)(C)C12` (centres unmarked) [Compound 2, Nambiscalarane C] was tested, and the IC50 ([5]; Homo sapiens, A549, 72 h) was 85 ± 10.2 µM, the IC50 (HT29 human colon cancer; Homo sapiens, HT-29, 72 h) was 33 ± 1.63 µM and the IC50 ([6]; Homo sapiens, HeLa) was 73.2 ± 5.37 µM. For the same molecule, the IC50 ([7]; Homo sapiens, HCT-116, 72 h) was 14.3 ± 0.56 µM, the IC50 (Vero cells; Chlorocebus sabaeus, Vero) was > 100 µM and the MIC [1] was 128 µg/mL (≈ 249 µM). The MIC [2] was 32 µg/mL (≈ 62.2 µM), the MIC [3] was 32 µg/mL (≈ 62.2 µM) and the MIC [4] was 128 µg/mL (≈ 249 µM).

For `CC(=CC(=O)OC1CC2(C)c3cocc3CCC2C2(C)CC(O)C3C(C)(C)CCCC3(C)C12)CC(=O)O` (centres unmarked) [Compound 4, Nambiscalarane E], the IC50 ([5]; Homo sapiens, A549, 72 h) was 22.9 ± 1.99 µM, the IC50 (HT29 human colon cancer; Homo sapiens, HT-29, 72 h) was 19.6 ± 2.32 µM and the IC50 ([6]; Homo sapiens, HeLa) was 23.7 ± 0.51 µM. The IC50 ([7]; Homo sapiens, HCT-116, 72 h) was 13.4 ± 0.39 µM, the IC50 (Vero cells; Chlorocebus sabaeus, Vero) was > 100 µM and the MIC [1] was 128 µg/mL (≈ 250 µM). For the same molecule, the “MIC, Bacillus cereus ATCC 11778” value [2] was “inactive”, the “MIC, Bacillus subtilis ATCC 6633” value [3] was “inactive” and the “MIC, Methicillin Resistant Staphylococcus aureus DMST 20654” value [4] was “inactive”.

`CC(=O)OC1CC2(C)C3CCc4cocc4C3(C)CC(OC(=O)CC(C)=CC(=O)O)C2C2(C)CCCC(C)(C)C12` (centres unmarked) [Compound 3, Nambiscalarane D] was tested, and the IC50 ([5]; Homo sapiens, A549, 72 h) was 25 ± 1.59 µM, the IC50 (HT29 human colon cancer; Homo sapiens, HT-29, 72 h) was 20.8 ± 0.63 µM and the IC50 ([6]; Homo sapiens, HeLa) was 21.1 ± 1.66 µM. For the same molecule, the IC50 ([7]; Homo sapiens, HCT-116, 72 h) was 21.4 ± 1.14 µM, the “IC50, Vero Cells” value (Vero cells) was “no cytotoxicity” and the IC50 (Vero cells; Chlorocebus sabaeus, Vero) was 70.2 ± 8.23 µM. For the same molecule, the “MIC, Staphylococcus aureus ATCC 25923” value [1] was “inactive”, the MIC [2] was 32 µg/mL (≈ 57.7 µM) and the MIC [3] was 16 µg/mL (≈ 28.8 µM). For the same molecule, the “MIC, Methicillin Resistant Staphylococcus aureus DMST 20654” value [4] was “inactive”.

With `NC[C@H]1O[C@H](O[C@H]2[C@H](O)[C@@H](O[C@H]3O[C@H](CO)[C@@H](O)[C@H](N)[C@H]3O)[C@H](N)C[C@@H]2N)[C@H](O)[C@@H](O)[C@@H]1O` [Kanamycin, reference compound] the “MIC, Staphylococcus aureus ATCC 25923” value [1] was 2 µg/mL (≈ 4.13 µM), the “MIC, Bacillus cereus ATCC 11778” value [2] was 16 µg/mL (≈ 33 µM) and the “MIC, Bacillus subtilis ATCC 6633” value [3] was 8 µg/mL (≈ 16.5 µM). The “MIC, Methicillin Resistant Staphylococcus aureus DMST 20654” value [4] was 4 µg/mL (≈ 8.26 µM).

For `N.N.[Cl][Pt][Cl]` [cis-platin, reference compound], the IC50 ([5]; 72 h) was 16.86 ± 0.03 µM, the IC50 (HT29 human colon cancer; 72 h) was 5.3 ± 0.23 µM and the IC50 [6] was 6.43 ± 0.13 µM. The IC50 ([7]; 72 h) was 4.93 ± 0.77 µM and the IC50 (Vero cells) was > 100 µM.

`CC(=O)OC1CC2(C)C3CCC4=C(C(O)OC4=O)C3(C)CC(OC(=O)C=C(C)CC(=O)O)C2C2(C)CCCC(C)(C)C12` (centres unmarked) [Compound 7, Nambiscalarane H] was tested, and the IC50 ([5]; Homo sapiens, A549, 72 h) was > 100 µM, the IC50 (HT29 human colon cancer; Homo sapiens, HT-29, 72 h) was > 100 µM and the IC50 ([6]; Homo sapiens, HeLa) was > 100 µM. For the same molecule, the IC50 ([7]; Homo sapiens, HCT-116, 72 h) was > 100 µM, the “IC50, Vero Cells” value (Vero cells) was “no cytotoxicity” and the IC50 (Vero cells; Chlorocebus sabaeus, Vero) was > 100 µM. For the same molecule, the “MIC, Staphylococcus aureus ATCC 25923” value [1] was “inactive”, the MIC [2] was 64 µg/mL (≈ 109 µM) and the MIC [3] was 64 µg/mL (≈ 109 µM). The “MIC, Methicillin Resistant Staphylococcus aureus DMST 20654” value [4] was “inactive”.

For `CC1(C)CCCC2(C)C1C(O)CC1(C)C3CCc4cocc4C3(C)CCC21` (centres unmarked) [Compound 1, Nambiscalarane B], the IC50 ([5]; Homo sapiens, A549, 72 h) was 24.3 ± 7.56 µM, the IC50 (HT29 human colon cancer; Homo sapiens, HT-29, 72 h) was 22.71 ± 0.16 µM and the IC50 ([6]; Homo sapiens, HeLa) was 40.8 ± 0.73 µM. The IC50 ([7]; Homo sapiens, HCT-116, 72 h) was 20.3 ± 3.13 µM, the IC50 (Vero cells; Chlorocebus sabaeus, Vero) was > 100 µM and the MIC [1] was 128 µg/mL (≈ 345 µM). The “MIC, Bacillus cereus ATCC 11778” value [2] was “inactive”, the “MIC, Bacillus subtilis ATCC 6633” value [3] was “inactive” and the “MIC, Methicillin Resistant Staphylococcus aureus DMST 20654” value [4] was “inactive”.

With `CC(=O)OC1CC2(C)C3CCC4=C(COC4=O)C3(C)CC(OC(=O)CC(C)=CC(=O)O)C2C2(C)CCCC(C)(C)C12` (centres unmarked) [Compound 6, Nambiscalarane G] the IC50 ([5]; Homo sapiens, A549, 72 h) was > 100 µM, the IC50 (HT29 human colon cancer; Homo sapiens, HT-29, 72 h) was 78.2 ± 4.28 µM and the IC50 ([6]; Homo sapiens, HeLa) was 45.9 ± 2.77 µM. For the same molecule, the IC50 ([7]; Homo sapiens, HCT-116, 72 h) was 16.5 ± 2.79 µM, the IC50 (Vero cells; Chlorocebus sabaeus, Vero) was > 100 µM and the MIC [1] was 64 µg/mL (≈ 112 µM). For the same molecule, the MIC [2] was 128 µg/mL (≈ 224 µM), the “MIC, Bacillus subtilis ATCC 6633” value [3] was “inactive” and the “MIC, Methicillin Resistant Staphylococcus aureus DMST 20654” value [4] was “inactive”.

`CC(=O)O[C@H]1C[C@]2(C)[C@H]([C@H](OC(=O)/C=C(\C)CC(=O)O)C[C@]3(C)c4cocc4CC[C@@H]23)[C@@]2(C)CCCC(C)(C)[C@H]12` [Compound 8, Nambiscalarane] showed an IC50 ([5]; Homo sapiens, A549, 72 h) of 27.5 ± 0.32 µM, an IC50 (HT29 human colon cancer; Homo sapiens, HT-29, 72 h) of 20.4 ± 2.07 µM and an IC50 ([6]; Homo sapiens, HeLa) of 26.6 ± 2.58 µM. The IC50 ([7]; Homo sapiens, HCT-116, 72 h) was 24.4 ± 2.06 µM, the IC50 (Vero cells; Chlorocebus sabaeus, Vero) was > 100 µM and the MIC [1] was 16 µg/mL (≈ 28.8 µM). The MIC [2] was 16 µg/mL (≈ 28.8 µM), the MIC [3] was 8 µg/mL (≈ 14.4 µM) and the “MIC, Bacillus subtilis ATCC 6633” value [3] was 8 µg/mL (≈ 14.4 µM). The MIC [4] was 128 µg/mL (≈ 231 µM).

`CC(=O)OC1CC2(C)C3CCC4=C(COC4=O)C3(C)CC(OC(=O)C=C(C)CC(=O)O)C2C2(C)CCCC(C)(C)C12` (centres unmarked) [Compound 5, Nambiscalarane F] was tested, and the IC50 ([5]; Homo sapiens, A549, 72 h) was 99.14 ± 0.36 µM, the IC50 (HT29 human colon cancer; Homo sapiens, HT-29, 72 h) was 54.5 ± 5.93 µM and the IC50 ([6]; Homo sapiens, HeLa) was 72.9 ± 5.23 µM. For the same molecule, the IC50 ([7]; Homo sapiens, HCT-116, 72 h) was 32.7 ± 2.37 µM, the “IC50, Vero Cells” value (Vero cells) was “no cytotoxicity” and the IC50 (Vero cells; Chlorocebus sabaeus, Vero) was > 100 µM. For the same molecule, the MIC [1] was 16 µg/mL (≈ 28 µM), the MIC [2] was 128 µg/mL (≈ 224 µM) and the MIC [3] was 128 µg/mL (≈ 224 µM). For the same molecule, the “MIC, Methicillin Resistant Staphylococcus aureus DMST 20654” value [4] was “inactive”.
